What was measured:
gastrin (CCK2) receptors [1] = target: T1, gastrin (CCK2) receptors (Rattus norvegicus, UniProt P30553); conditions: rat stomach assay; Kalindjian et al., J. Med. Chem. 1994; cited from earlier work
T1 construct: The stomach was excised and flushed with ca. 1 ml of unbuffered physiological saline solution; from tissue; host or cells: isolated whole stomach of immature rats (ca. 21 days old)
T1 sequence (P30553 1-452): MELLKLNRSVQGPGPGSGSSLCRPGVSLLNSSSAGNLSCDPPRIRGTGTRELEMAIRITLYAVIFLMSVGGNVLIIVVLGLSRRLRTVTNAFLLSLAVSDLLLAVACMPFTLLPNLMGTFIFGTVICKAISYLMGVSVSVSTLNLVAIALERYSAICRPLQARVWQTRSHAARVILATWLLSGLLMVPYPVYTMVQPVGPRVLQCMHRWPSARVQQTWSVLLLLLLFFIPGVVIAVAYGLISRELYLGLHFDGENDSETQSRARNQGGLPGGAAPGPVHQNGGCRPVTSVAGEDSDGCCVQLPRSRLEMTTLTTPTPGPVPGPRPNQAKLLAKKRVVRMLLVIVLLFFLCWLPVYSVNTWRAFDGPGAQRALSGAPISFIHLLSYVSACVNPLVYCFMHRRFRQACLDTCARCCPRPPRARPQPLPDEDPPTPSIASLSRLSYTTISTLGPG

gastrin (CCK2) receptors [2] = target: T1, gastrin (CCK2) receptors; test: gastrin (CCK2) antagonist activity in an immature rat stomach assay; conditions: pentagastrin dose-response curves, acid secretion, read-out: pKB rat stomach (converted)
Method in brief: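 Pentagastrin dose-response curves were run cumulatively 60 min after drug went into the serosal bath, itself after 120 min stabilisation. Preparation: perfused stomach from rats ca. 21 days old (33-50 g), with unbuffered saline under 100% O2 at 1 ml min^−1 and perfusate pH monitored.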

[3] = target: T2, human gastrin (CCK2) receptors (Homo sapiens, UniProt P32239); test: [125I]-BH-CCK-8S binding at human gastrin (CCK2) receptors cloned into an NIH3T3 cell line; conditions: for Ki: read-out: pKi ± s.e.mean (converted)
T2 construct: amplified by PCR (polymerase chain reaction) from the start codon to the stop codon; expressed in transfected cells
T2 sequence (P32239 1-447): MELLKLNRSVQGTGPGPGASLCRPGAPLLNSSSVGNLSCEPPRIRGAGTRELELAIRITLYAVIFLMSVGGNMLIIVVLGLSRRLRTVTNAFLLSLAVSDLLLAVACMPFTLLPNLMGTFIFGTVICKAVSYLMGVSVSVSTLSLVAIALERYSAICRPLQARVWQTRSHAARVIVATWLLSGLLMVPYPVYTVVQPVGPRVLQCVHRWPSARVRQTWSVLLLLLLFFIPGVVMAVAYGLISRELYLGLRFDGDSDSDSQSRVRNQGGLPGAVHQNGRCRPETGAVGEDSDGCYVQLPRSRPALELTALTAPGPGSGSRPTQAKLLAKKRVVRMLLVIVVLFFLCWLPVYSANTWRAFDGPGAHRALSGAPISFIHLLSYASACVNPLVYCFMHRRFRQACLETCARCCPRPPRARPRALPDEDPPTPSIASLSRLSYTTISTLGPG
Method: NIH3T3 cells from (ECACC) were cultured in Dulbecco's modified Eagle's medium (DMEM) (Invitrogen), containing 2 mM Glutamax I (Invitrogen), 10% heat inactivated newborn calf serum (Invitrogen). Cells (4×10^5) were seeded into 35 mm×10 mm dishes (Corning) and transfected using the Transfast™ reagent (Promega Corp.) according to the manufacturers instructions using 10 μg of the hCCK2R plasmid DNA at a ratio of 1:1 (DNA:Transfast™ reagent). Untransfected cells and cells transfected with vector only were also prepared as controls. After 48 h the cells were trypsinised using standard techniques (Culture of Animal Cells, A Manual of Basic Techniques 4th Ed, R. Ian Freshney) and dilutions were plated on 35 mm×10 mm dishes in media containing 800 μg/ml G-418 (Invitrogen). Cells were selected for 2 weeks until individual, separate colonies appeared. […] Using cloning rings and trypsinisation, according to standard techniques (Culture of Animal Cells, A Manual of Basic Techniques 4th Ed, R. Ian Freshney), individual colonies were picked from plates containing cells transfected with the vector only and cells transfected with the hCCK2R plasmid construct. The cells were expanded and analysed by radioligand binding analysis (see below).
Cultured clone 7 cells were stored as frozen pellets at −70° C. until required. Cell pellets were thawed in CCK2 assay buffer ((mM): 10 Hepes; 130 NaCl; 5 MgCl2; 4.7 KCl; 1 EGTA (pH7.2 at 21° C.) with 0.125 g Bacitracin added to each litre), and homogenised using a Polytron (4×1 s). The resulting membrane preparation was centrifuged at 39,800 g for 15 min at 4° C. Each cell pellet was re-suspended in fresh buffer and re-centrifuged as above. The final pellet was re-suspended by homogenisation (Teflon-in-glass), to the appropriate membrane concentration.
The assays were terminated by rapid filtration through pre-soaked Whatman GF/B filters which were washed (3×3 ml) with ice-cold 50 mM Tris HCl (pH7.4 @ 4° C.). Filters were transferred to plastic gamma counter vials and bound radioactivity determined by counting (1 min) in a Clini-gamma counter.
Saturation data were analysed using the curve-fitting programmes, Radlig and Ligand.
Briefly, dilution and addition of test compounds, radioligand and cell membranes were performed using a Beckman Biomek 2000. The ability of compounds to inhibit the specific binding of to hCCK2 receptors was determined in triplicate over a range of concentrations at half-log intervals. Total and non-specific binding was determined for each compound. Each compound was tested in a minimum of three experiments. Competition data were fitted to the Hill equation using Graph-pad Prism software to obtain estimates of the IC50 (mid-point location parameter) and nH (mid-point slope parameter). Dissociation constants (KI) were determined using the Cheng & Prusoff equation (1973) to correct for the receptor occupancy by the radioligand.

CCK2 receptor = target: T3, CCK2 receptor (Rattus norvegicus, UniProt P30553); conditions: rat cortical membranes; Nishida et al. 1994; cited from earlier work
T3 construct: host or cells: rat cortical membranes
T3 sequence (P30553 1-452): T1 sequence (P30553 1-452)

| Kb (gastrin (CCK2) receptors [2]) [nM] | Ki [3] [nM] | pKi ± s.e.mean ([3]; displacement of [125I]-BH-CCK-8S, hCCK2R NIH3T3 clone 7 cell membranes) | Structure (SMILES) | affinity pKB for the CCK2 receptor (gastrin (CCK2) receptors [1]) | affinity pKi for the CCK2 receptor (CCK2 receptor) |
| --- | --- | --- | --- | --- | --- |
| – | – | – | Cc1cccc(NC(=O)N[C@@H]2N=C(c3ccccc3)c3ccccc3N(C)C2=O)c1 [L-365,260] | 7.61±0.12 | – |
| 2.82 | 3240 | – | CN1C(=O)N(CC(=O)Nc2ccccc2)[N+]([O-])=C(C2CCCCC2)c2ccccc21 [Example 160, 2-(5-Cyclohexyl-1-methyl-2-oxo-4-oxy-1,2-dihydro-3H-1,3,4-benzotriazepin-3-yl)-N-phenyl-acetamide] | – | – |
| – | – | – | CNc1cccc(NC(=O)N[C@@H]2N=C(c3ccccn3)c3ccccc3N(CC(=O)C(C)(C)C)C2=O)c1 [YF476] | – | 10.17+0.03 |
| 0.295 | 0.11 | – | O=C(CN1N=C(C2CCCCC2)c2ccccc2N(CC(=O)C2CCCC2)C1=O)Nc1cccc(-c2nc(=O)o[nH]2)c1 [Example 121, 2-[5-Cyclohexyl-1-(2-cyclopentyl-2-oxo-ethyl)-2-oxo-1,2-dihydro-3H-1,3,4-benzotriazepin-3-yl]-N-[3-(5-oxo-Z 5-dihydro-[1,2,4]oxadiazol-3-yl)-phenyl]-acetamide] | – | – |
| 1.48 | – | 9.48 ± 0.08 | O=C(O)CSc1cccc(NC(=O)CN2N=C(C3CCCCC3)c3ccccc3N(CC(=O)C3CCCC3)C2=O)c1 [Example 58, (3-{2-[5-Cyclohexyl-1-(2-cyclopentyl-2-oxo-ethyl)-2-oxo-1,2-dihydro-3H-1,3,4-benzotriazepin-3-yl]-acetylamino}-phenylsulfanyl)-acetic acid] | – | – |
| 1.86 | 0.355 | – | O=C(CN1N=C(C2CCCCC2)c2ccccc2N(CC(=O)C2CCCC2)C1=O)Nc1cccc(C(=O)O)c1 [Example 22, 3-{2-[5-Cyclohexyl-1-(2-cyclopentyl-2-oxo-ethyl)-2-oxo-1,2-dihydro-3H-1,3,4-benzotriazepin-3-yl]-acetylamino}-benzoic acid] | – | – |
| 9.55 | 0.219 | – | CC(C)(C)C(=O)CN1C(=O)N(CC(=O)Nc2cccc(-c3nc(=O)o[nH]3)c2)N=C(C2CCCCC2)c2ccccc21 [Example 59, 2-[5-Cyclohexyl-1-(3,3-dimethyl-2-oxo-butyl)-2-oxo-1,2-dihydro-3H-1,3,4-benzotriazepin-3-yl]-N-[3-(5-oxo-Z5-dihydro-[1,2,4]oxadiazol-3-yl)-phenyl]-acetamide] | – | – |

| Structure (SMILES) | Kb (gastrin (CCK2) receptors [2]) [nM] | Ki [3] [nM] | pKi ± s.e.mean ([3]; displacement of [125I]-BH-CCK-8S, hCCK2R NIH3T3 clone 7 cell membranes) | affinity pKB for the CCK2 receptor (gastrin (CCK2) receptors [1]) | affinity pKi for the CCK2 receptor (CCK2 receptor) |
| --- | --- | --- | --- | --- | --- |
| O=C(O)Cc1cccc(NC(=O)CN2N=C(C3CCCCC3)c3ccccc3N(CC(=O)C3CCCC3)C2=O)c1 [Example 56, (3-{2-[5-Cyclohexy-1-(2-cyclopentyl-2-oxo-ethyl)-2-oxo-1,2-dihydro-3H-1,3,4-benzotriazepin-3-yl]-acetylamino}-phenyl)-acetic acid] | 0.741 | 0.162 | – | – | – |
| O=C(O)CCc1cccc(NC(=O)CN2N=C(C3CCCCC3)c3ccccc3N(CC(=O)C3CCCC3)C2=O)c1 [Example 128, 3-(3-{2-[5-Cyclohexyl-1-(2-cyclopentyl-2-oxo-ethyl)-2-oxo-1,2-dihydro-3H-1,3,4-benzotriazepin-3-yl]-acetylamino}-phenyl)-propionic acid] | 1.23 | 0.204 | – | – | – |
